In PubChem BioAssay (NCI):
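Step 1: Grow cells in 96-well plates. Step 2: Expose to compound for 48 hours at 5 concentrations. Step 3: Interpolate endpoints linearly; if unreached, use highest concentration. GI50 = concentration required for 50% inhibition of growth. TGI: concentration producing complete growth inhibition.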

Key:
Experiment in all cases: DTP human tumour cell line panel, 48 h
[1] = system: 786-0 renal
[2] = system: A498 renal
[3] = system: ACHN renal
[4] = system: BT-549 breast
[5] = system: CAKI-1 renal
[6] = system: DU-145 prostate
[7] = system: EKVX NSCLC
[8] = system: HOP-62 NSCLC
[9] = system: HOP-92 NSCLC
[10] = system: HS 578T breast
[11] = system: KM12 colon
[12] = system: MALME-3M melanoma
[13] = system: MDA-MB-435
[14] = system: NCI-H23 lung
[15] = system: OVCAR-3 ovarian
[16] = system: OVCAR-4 ovarian
[17] = system: OVCAR-5 ovarian
[18] = system: PC-3 prostate
[19] = system: RXF 393 renal
[20] = system: SF-268 CNS
[21] = system: SF-539 CNS
[22] = system: SK-MEL-28 melanoma
[23] = system: SK-MEL-5 melanoma
[24] = system: SK-OV-3 ovarian
[25] = system: SNB-75 CNS
[26] = system: TK-10 renal
[27] = system: UACC-62 melanoma
[28] = system: UO-31 renal
[29] = system: A549 NSCLC
[30] = system: CCRF-CEM leukemia
[31] = system: COLO 205 colon
[32] = system: HCC-2998 colon
[33] = system: HCT-116 colon
[34] = system: HCT-15 colon
[35] = system: HT29 colon
[36] = system: IGROV1 ovarian
[37] = system: K-562 leukemia
[38] = system: M14 melanoma
[39] = system: MCF7 breast
[40] = system: MDA-MB-231 breast
[41] = system: MOLT-4 leukemia
[42] = system: NCI-H226 lung
[43] = system: NCI-H460 lung
[44] = system: NCI-H522 lung
[45] = system: NCI/ADR-RES ovarian
[46] = system: OVCAR-8 ovarian
[47] = system: RPMI-8226 leukemia
[48] = system: SF-295 CNS
[49] = system: SK-MEL-2 melanoma
[50] = system: SN12C renal
[51] = system: SNB-19 CNS
[52] = system: SR leukemia
[53] = system: SW-620 colon
[54] = system: T-47D breast
[55] = system: U251 CNS
[56] = system: UACC-257 melanoma

`CC[C@]12C=CCN3CC[C@@]4(c5cc(NC(=O)COc6cc(O)c7c(=O)cc(-c8ccccc8)oc7c6)c(OC)cc5N(C)[C@H]4[C@@](O)(C(=O)OC)[C@@H]1OC(C)=O)[C@@H]32` showed a GI50 [1] of 1.79 µM, a TGI [1] of 3.53 µM and a GI50 [2] of 1.48 µM. It also gave a TGI [2] of 3.1 µM, a GI50 [3] of 1.67 µM and a TGI [3] of 3.2 µM. It also gave a GI50 [4] of 1.64 µM, a TGI [4] of 3.18 µM and a GI50 [5] of 1.81 µM. For the same molecule, the TGI [5] was 4.29 µM, the GI50 [6] was 2.4 µM and the TGI [6] was 5.57 µM. It also gave a GI50 [7] of 2 µM, a TGI [7] of 4.6 µM and a GI50 [8] of 1.88 µM. It also gave a TGI [8] of 3.94 µM, a GI50 [9] of 1.36 µM and a TGI [9] of 2.98 µM. For the same molecule, the GI50 [10] was 1.99 µM, the TGI [10] was 4.79 µM and the GI50 [11] was 2.07 µM. The TGI [11] was 5.14 µM, the GI50 [12] was 1.58 µM and the TGI [12] was 2.97 µM. It also gave a GI50 [13] of 1.56 µM, a TGI [13] of 3.02 µM and a GI50 [14] of 1.85 µM. It also gave a TGI [14] of 3.45 µM, a GI50 [15] of 2.81 µM and a TGI [15] of 7.17 µM. It also gave a GI50 [16] of 1.88 µM, a TGI [16] of 3.42 µM and a GI50 [17] of 1.72 µM. The TGI [17] was 3.2 µM, the GI50 [18] was 1.31 µM and the TGI [18] was 2.78 µM. For the same molecule, the GI50 [19] was 1.74 µM, the TGI [19] was 3.2 µM and the GI50 [20] was 1.98 µM. The TGI [20] was 4.51 µM, the GI50 [21] was 1.67 µM and the TGI [21] was 3.2 µM. It also gave a GI50 [22] of 1.75 µM, a TGI [22] of 3.2 µM and a GI50 [23] of 1.81 µM. It also gave a TGI [23] of 3.34 µM, a GI50 [24] of 2.15 µM and a TGI [24] of 4.79 µM. For the same molecule, the GI50 [25] was 1.34 µM, the TGI [25] was 3.97 µM and the GI50 [26] was 2.15 µM. For the same molecule, the TGI [26] was 4.84 µM, the GI50 [27] was 1.85 µM and the TGI [27] was 3.69 µM. The GI50 [28] was 1.68 µM and the TGI [28] was 3.08 µM.

`C#C[C@]1(O)CC[C@H]2[C@@H]3CC=C4c5sc(Nc6ccc(C)cn6)nc5CC[C@]4(C)[C@H]3CC[C@@]21C` was tested, and the GI50 [1] was 0.198 µM, the TGI [1] was 0.61 µM and the GI50 [2] was 0.376 µM. It also gave a TGI [2] of 1.12 µM, a GI50 [29] of 1.35 µM and a TGI [29] of 12.3 µM. The GI50 [3] was 0.907 µM, the TGI [3] was 11.2 µM and the GI50 [4] was 0.566 µM. The TGI [4] was 3.05 µM, the GI50 [5] was 0.597 µM and the TGI [5] was 4 µM. For the same molecule, the GI50 [30] was 0.431 µM, the TGI [30] was 3.3 µM and the GI50 [31] was 1.49 µM. For the same molecule, the TGI [31] was 3.68 µM, the GI50 [6] was 1.84 µM and the TGI [6] was 11.5 µM. The GI50 [7] was 0.994 µM, the TGI [7] was 9.92 µM and the GI50 [32] was 2.23 µM. It also gave a TGI [32] of 7.26 µM, a GI50 [33] of 0.504 µM and a TGI [33] of 2.17 µM. The GI50 [34] was 1 µM, the TGI [34] was 2.74 µM and the GI50 [8] was 1.07 µM. The TGI [8] was 4.34 µM, the GI50 [9] was 0.877 µM and the TGI [9] was 4.13 µM. For the same molecule, the GI50 [10] was 0.265 µM, the TGI [10] was 0.986 µM and the GI50 [35] was 1.2 µM. The TGI [35] was 3.26 µM, the GI50 [36] was 1.75 µM and the TGI [36] was 12.9 µM. For the same molecule, the GI50 [37] was 0.408 µM, the TGI [37] was greater than 100 µM and the GI50 [11] was 1.05 µM. The TGI [11] was 4.51 µM, the GI50 [38] was 0.536 µM and the TGI [38] was 2.55 µM. The GI50 [12] was 0.559 µM, the TGI [12] was 2.42 µM and the GI50 [39] was 0.402 µM. It also gave a TGI [39] of 1.92 µM, a GI50 [40] of 1.28 µM and a TGI [40] of 4 µM. It also gave a GI50 [13] of 0.715 µM, a TGI [13] of 3.67 µM and a GI50 [41] of 0.3 µM. The GI50 [42] was 2.16 µM, the TGI [42] was 8.32 µM and the GI50 [14] was 1.24 µM. The TGI [14] was 5.16 µM, the GI50 [43] was 0.652 µM and the TGI [43] was 5.29 µM. It also gave a GI50 [44] of 2.01 µM, a TGI [44] of 4.58 µM and a GI50 [45] of 1.86 µM. The TGI [45] was 6.94 µM, the GI50 [15] was 1.85 µM and the TGI [15] was 6.15 µM. For the same molecule, the GI50 [16] was 1.9 µM, the TGI [16] was 13.8 µM and the GI50 [17] was 2.13 µM. The TGI [17] was 6.76 µM, the GI50 [46] was 2.02 µM and the TGI [46] was greater than 27.1 µM. It also gave a GI50 [18] of 0.379 µM, a TGI [18] of 5.08 µM and a GI50 [47] of 0.199 µM. For the same molecule, the TGI [47] was 0.609 µM, the GI50 [19] was 0.0536 µM and the TGI [19] was 0.261 µM. For the same molecule, the GI50 [20] was 1.07 µM, the TGI [20] was 10.6 µM and the GI50 [48] was 0.184 µM. For the same molecule, the TGI [48] was 0.411 µM, the GI50 [21] was 0.203 µM and the TGI [21] was 0.646 µM. For the same molecule, the GI50 [49] was 0.741 µM, the TGI [49] was 3.23 µM and the GI50 [22] was 0.254 µM. It also gave a TGI [22] of 0.727 µM, a GI50 [23] of 1.27 µM and a TGI [23] of 2.58 µM. It also gave a GI50 [24] of 0.717 µM, a TGI [24] of 3.3 µM and a GI50 [50] of 2.52 µM. The TGI [50] was 10.5 µM, the GI50 [51] was 1.22 µM and the TGI [51] was 4.83 µM. The GI50 [25] was 0.332 µM, the TGI [25] was 3.45 µM and the GI50 [52] was 0.343 µM. For the same molecule, the GI50 [53] was 0.657 µM, the TGI [53] was 2.23 µM and the GI50 [54] was 1.97 µM. It also gave a TGI [54] of 12.1 µM, a GI50 [26] of 2.55 µM and a TGI [26] of 9.9 µM. The GI50 [55] was 0.537 µM, the TGI [55] was 5.77 µM and the GI50 [56] was 0.947 µM. It also gave a TGI [56] of 3.35 µM, a GI50 [27] of 0.363 µM and a TGI [27] of 1.43 µM. For the same molecule, the GI50 [28] was 0.378 µM and the TGI [28] was 1.62 µM.
